# Laboratory results from PubChem BioAssay (NCI).
#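 Following 48 hours of exposure in 96-well plates, responses at five concentrations were used to interpolate endpoints linearly. At the TGI there is no net growth.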
# Experiments:
# Assay in all cases: NCI tumour cell line growth inhibition, 48 h
# DU-145 prostate = system: DU-145 prostate
# SK-OV-3 ovarian = system: SK-OV-3 ovarian
# MDA-MB-435 = system: MDA-MB-435
# SK-MEL-28 melanoma = system: SK-MEL-28 melanoma
# MALME-3M melanoma = system: MALME-3M melanoma
# SF-268 CNS = system: SF-268 CNS
# SK-MEL-5 melanoma = system: SK-MEL-5 melanoma
# MDA-MB-231 breast = system: MDA-MB-231 breast
# HS 578T breast = system: HS 578T breast
# MOLT-4 leukemia = system: MOLT-4 leukemia
# UACC-62 melanoma = system: UACC-62 melanoma
SMILES,TGI (DU-145 prostate) [µM],TGI (SK-OV-3 ovarian) [µM],TGI (MDA-MB-435) [µM],TGI (SK-MEL-28 melanoma) [µM],TGI (MALME-3M melanoma) [µM],TGI (SF-268 CNS) [µM],TGI (SK-MEL-5 melanoma) [µM],TGI (MDA-MB-231 breast) [µM],TGI (HS 578T breast) [µM],TGI (MOLT-4 leukemia) [µM],TGI (UACC-62 melanoma) [µM]
O=[N+]([O-])c1cc(C2ON=C(c3ccccc3)N2C23CC4CC(CC(C4)C2)C3)ccc1Cl (stereo not given),> 100,> 100,> 100,> 100,> 100,> 100,> 100,> 100,> 100,> 100,
CSc1c(C#N)c(=O)n(N)c2n[nH]c(C)c12,> 100,> 100,> 100,> 100,> 100,> 100,> 100,> 100,> 100,> 100,> 100
C[C@@H](Br)[C@@H]1CC[C@H]2c3[nH]c4ccccc4c3CCN2C1,> 100,87.2,45.6,> 100,40.3,> 100,29.4,41.1,33.9,49.7,33.5
CN(C)CCNc1nc2c(c(=O)n(C)c(=O)n2C)n1C,> 100,> 100,> 100,> 100,> 100,> 100,> 100,> 100,> 100,> 100,> 100
O=C1OCC(CN2CCC(n3c(=O)[nH]c4ccccc43)CC2)=C1c1ccccc1,71.7,94.2,62.4,61,56.6,95.5,28.9,79.3,60.4,60,26.9
O=Cc1ccc(Oc2c3ccccc3nc3ccccc23)cc1,13.7,21.6,6.85,25.6,30,17.6,24.2,13.3,7.91,6.08,2.74
COc1ccc(/C=C2/C(=O)C(c3ccccc3)N(c3ccccc3)C2=O)cc1OC (stereo not given),> 10,> 10,> 10,> 10,> 10,> 10,0.307,> 10,> 10,> 10,> 10
Cc1csc(CP(=O)(OC(C)C)OC(C)C)n1,> 100,> 100,> 100,> 100,> 100,> 100,> 100,> 100,> 100,> 100,
[B]C(=O)NC(CC(C)C)C(=O)NC1c2ccsc2C(=O)C1O (stereo not given) (tested in a mixture with another compound),> 100,> 100,> 100,> 100,> 100,> 100,> 100,> 100,> 100,> 100,> 100
COc1cc2oc(=O)cc(C)c2c(OC)c1OC,> 100,> 100,> 100,> 100,> 100,> 100,> 100,> 100,> 100,> 100,> 100
c1ccc2c[n+](Cc3ccnc4ccccc34)ccc2c1,> 100,> 100,> 100,> 100,> 100,> 100,> 100,> 100,> 100,> 100,> 100
Oc1ccccc1/C=N/N1C(=S)N(c2ccccc2)C(=Nc2ccccc2)C1=Nc1ccccc1,> 68.3,30.7,> 60,80.5,> 54.6,26.7,40.9,24.1,37.7,> 89.5,29.3
O=c1oc2ccc([N+](=O)[O-])cc2cc1-c1csc(-c2ccccc2)n1,> 100,> 100,> 100,> 100,> 100,> 100,> 100,> 100,> 100,> 100,> 100
O=C1CCCC1C(O)(C(F)(F)Cl)C(F)(F)Cl (stereo not given),> 10,> 10,> 10,> 10,> 10,> 10,> 10,> 10,> 10,> 10,> 10
COc1ccc2oc(=O)c(-c3nc4ccccc4s3)cc2c1,> 67.5,36.5,> 47.1,> 100,28.2,> 100,> 100,53.2,> 95.8,> 100,> 100
CC1(C)C/C=C\CCC(O)C(O)CCC(C)(C)C1=O (stereo not given),> 100,> 100,> 100,> 100,> 100,> 100,> 100,> 100,> 100,> 100,> 100
COC(=O)/C=C/[C@H]1[C@H](C)N1S(=O)(=O)c1ccc(C)cc1 (stereo not given in full),> 100,> 100,> 100,> 100,> 100,> 100,> 100,> 100,> 100,> 100,> 100
COc1ccc(C2=Nn3c(C)nnc3S/C2=C\c2ccc(-c3ccc([N+](=O)[O-])cc3)o2)cc1,27.3,> 100,17.9,,86.3,47.1,34.4,> 100,> 100,18,28.3
O=c1[nH]nc(-c2ccccc2)c2[nH]c3c(c12)CCCc1ccccc1-3,57.8,> 100,29.6,,30.9,> 100,26.5,52.4,38.7,33.8,25.1
COc1cc(CNC(=O)CCCCCCCCCCSC#N)ccc1O,34.3,25.8,24.4,21.1,> 100,,19.4,> 100,40.9,31.1,

SMILES,TGI (DU-145 prostate) [µM],TGI (SK-OV-3 ovarian) [µM],TGI (MDA-MB-435) [µM],TGI (SK-MEL-28 melanoma) [µM],TGI (MALME-3M melanoma) [µM],TGI (SF-268 CNS) [µM],TGI (SK-MEL-5 melanoma) [µM],TGI (MDA-MB-231 breast) [µM],TGI (HS 578T breast) [µM],TGI (MOLT-4 leukemia) [µM],TGI (UACC-62 melanoma) [µM]
O=[N+]([O-])C(=C(\Cl)NCCO)/C(Cl)=C(/Cl)Br,20.6,28.5,2.67,5.51,3.8,4.56,7.3,3.99,28,2.93,4.78
COC(=O)CC(c1ccccc1)C(C#N)(OP1(=O)OC(c2ccccc2)C(C)N1C)c1ccccc1 (stereo not given),> 100,> 100,> 100,> 100,> 100,> 100,39.8,> 100,> 100,64.6,> 100
O=C1CN2CCN(CC2)CC(=O)Nc2ccc(cc2)S(=O)(=O)c2ccc(cc2)NC(=O)CN2CCN(CC2)CC(=O)Nc2ccc(cc2)S(=O)(=O)c2ccc(cc2)N1,> 100,> 100,> 89.7,> 100,38.8,38.7,> 100,43.1,> 100,> 89,> 67.9
O=C1C=C(NCCc2ccc(O)cc2)C(=O)C=C1NCCc1ccc(O)cc1,> 100,> 100,> 100,> 100,> 100,> 100,> 100,> 100,> 100,> 100,> 100
COc1ccc([C@H]2C=C(c3cc(F)c(Cl)cc3Cl)N=c3s/c(=C\c4ccc(-c5ccc(Cl)cc5Cl)o4)c(=O)n32)cc1,> 100,65.2,> 100,> 100,> 100,> 100,> 100,70.2,> 100,> 100,> 100
FC(F)(F)c1ccc(N=NN2CCCC2)cc1,> 100,> 100,> 100,> 100,> 100,> 100,> 100,> 100,> 100,> 100,> 100
CCCCCC(=O)OC[n+]1ccc(-c2c(COC(=O)NC(C)C)c(COC(=O)NC(C)C)c3n2CCC3)cc1,> 100,> 100,> 100,> 100,> 100,> 100,> 100,> 100,> 100,> 100,> 100
O=C(O)COc1cccc2ccccc(=O)c12,> 100,> 100,> 100,> 100,> 100,> 100,> 100,> 100,> 100,> 100,> 100
COc1ccc(/C=C2\NC(=S)N(CN3CCOCC3)C2=O)cc1,> 100,> 100,> 100,> 100,> 100,> 100,> 100,> 100,> 100,> 100,> 100
C[C@H](OC(=O)/C=C/c1ccc(O)c(O)c1)[C@H](C)OC(=O)/C=C/c1ccc(O)c(O)c1,39.3,32.3,77.3,28.6,31.9,34.5,21.5,35.9,> 100,> 100,12.6
CCN(CC)CCCNc1c2cc(OC)ccc2nc2cccc([N+](=O)[O-])c12,0.426,0.789,0.229,0.534,0.263,0.593,0.238,0.319,0.448,0.554,0.359
Cc1nc2ccccc2n1Cc1ccc(NC(=S)NC2CCCCC2)cc1,> 100,> 100,> 100,> 100,> 100,> 100,> 51.4,> 100,> 100,> 100,> 89.7
ClC1(Cl)C2CCOC21n1cnc2ccccc21 (stereo not given),> 100,> 100,> 100,> 100,> 100,> 100,> 100,> 100,> 100,> 100,> 100
CCOc1ccnc2c(OC)c(C)c3nc4ccccc4nc3c12,> 100,> 100,> 100,> 100,> 100,> 100,> 100,> 100,> 100,> 100,
CNC(=S)c1nnsc1N,> 100,> 100,> 100,> 100,> 100,> 100,> 100,> 100,> 100,> 100,> 100
c1ccc2c(CCNC3=NCCO3)cccc2c1,> 10,> 10,> 10,> 10,> 10,> 10,> 10,> 10,> 10,> 10,> 10
O=C(CCCN1CCC(Nc2ccc(F)cc2)(c2nnnn2C2CCCCC2)CC1)c1ccc(F)cc1,28.4,11.5,31.5,30.5,> 100,33.9,42,36,46.3,> 100,11.2
COC1=C2C[C@](OC)(C#CC=CC#CC2O)CC1(C)C (stereo not given in full),> 100,,> 100,> 100,> 100,> 100,> 100,> 100,> 100,> 100,> 100
Cc1ccc(S(=O)(=O)N/N=C2/C3CC4CCC2C4C3)cc1 (stereo not given),> 100,> 100,> 100,> 100,> 100,> 100,> 100,> 100,> 100,,> 100
COc1ccc(-c2nc3ccccc3c(=O)[nH]2)cc1OC,> 100,> 100,> 100,,> 100,60,> 100,77,83.1,> 100,> 100
